# Assay results: paper PMC6039436, “Radiobrominated benzimidazole-quinoline derivatives as Platelet-derived growth factor receptor beta (PDGFRβ) imaging probes” (Scientific Reports, 2018)
# Entries after “also recorded” stand apart in the source; their conditions may differ.
# Key:
# [1] = tested on: BxPC3-luc cells (PDGFRβ-positive); assay: Cellular uptake study (double tracer method); type: cell-based; details: BxPC3-luc (PDGFRβ-positive) vs MCF7 (PDGFRβ-negative), 0.5–4 h
# Method: Figure 5 Cellular uptake study. Time-dependent accumulation of (a) [^77Br]2 and [^125I]4 (b) [^77Br]3 and [^125I]5 in BxPC3-luc and MCF7 cells. Data were presented as mean ± SD for three samples.
# Radiotracer uptake experiments in tumor cells were performed using BxPC3-luc and MCF7 cell lines. To compare the uptake between radiobrominated compounds, [^77Br]2 and [^77Br]3, and the corresponding radioiodinated compounds, [^125I]4 and [^125I]5, the cellular uptake experiments were performed by a double tracer method as described previously with a slight modification[30],[31],[35]. Briefly, the cells were seeded in RPMI 1640 medium containing 10% FBS and antibiotics on six-well plates (2 × 10^5 cells/well) for 24 h in a 5% CO2 incubator at 37 °C. After removal of medium, cells were incubated in medium without FBS containing [^77Br]2 (3.7 kBq/well) and [^125I]4 (3.7 kBq/well) or [^77Br]3 (3.7 kBq/well) and [^125I]5 (3.7 kBq/well) and tween-80 (0.1%) for 0.5, 1, 2 and 4 h. Radioiodinated compounds were prepared as described previously][24]. Cells were washed with ice-cold 1 mL of PBS and dissolved using 0.5 mL of 1 M NaOH and wells were washed with 1 M NaOH aqueous solution (0.5 mL). The radioactivity of pooled basic fractions was counted by a gamma counter. A range between 16 and 71 keV was used for measuring ^125I and between 95 and 700 for ^77Br. When radioactivity of ^77Br was counted, the crossover of ^125I activity into the ^77Br channel was negligible. More than one month after the experiment, the radioactivity of ^125I was determined because at that time ^77Br has been decayed and its radioactivity was negligible. The protein in the cell was quantified by a BCA Protein Assay Kit. All data were expressed as %dose/µg protein.
# BxPC3-luc tumor = assay: In vivo blocking study in tumor-bearing mice; design: species or system BALB/c nu/nu mice; details: 1 h postinjection
# Method: The tumor uptake of both the control and blocking groups was 1.61 ± 0.24 and 0.96 ± 0.20% ID/g, respectively. Thus, the figures are shown as not only % ID/g but also as tumor-to-blood ratio.
# Figure 7 (a) Tumor uptake and (b) tumor/blood uptake ratios of [^77Br]2 and [^125I]4 at 1 h postinjection with 1 (40 mg/kg) (blocking group) or no treatment control group. Data were presented as means ± SD for three or four mice. Significance was determined using an unpaired Student’s t-test (^*p < 0.05, ^**p < 0.01).
# For in vivo blocking studies, the tumor-bearing mice were intraperitoneally injected with 200 µL of 1 (40 mg/kg in 15% ethanol and 85% water) 1 h before intravenous injection of 100 µL of saline solution containing [^77Br]2 and [^125I]4 or [^77Br]3 and [^125I]5 (74 kBq, respectively), 1% tween-80 and 10% ethanol. At 1 h postinjection of radiotracers, the mice were sacrificed.
# Tissues in mice were resected and weighed. The radioactivity of the tissues was counted by a gamma counter and counts were corrected for background radiation. The data were expressed as percent injection dose per gram tissue (%ID/g).
# BxPC3-luc cells = assay: In vitro blocking study; type: cell-based; details: inhibitor 1, 2 or 3 at 10 µM, 10 min pretreatment
# Method: Blocking studies using 1, 2, and 3 were performed (Fig. 6). Pretreatment of an excess amount of 1 or 2 decreased uptakes of [^77Br]2 in BxPC3-luc cells. The uptake of [^77Br]3 was inhibited by a pretreatment using 1 or 3 in the same way.
# Figure 6 In vitro blocking studies of (a) [^77Br]2 and (b) [^77Br]3 in BxPC3-luc and MCF7 cells. Data were presented as mean ± SD for three samples. Significance was determined using a one-way ANOVA followed by Dunnett’s post hoc test (^*p < 0.001, vs control [^77Br]2 or [^77Br]3).
# For in vitro blocking experiment, inhibitor (1, 2, or 3 with final concentration 10 µM) in 1 mL of medium without FBS was added to wells containing 2 × 10^5 cells/well. After 10 min incubation, [^77Br]2 or [^77Br]3 (3.7 kBq/well) in 1 mL of medium without FBS was added to each well. Radioactivity and protein concentration in the cells were determined by the same method above-mentioned.
"Tumor-to-blood ratio, blocking group vs control (BxPC3-luc tumor; pretreatment with 1 (40 mg/kg))","Tumor uptake, blocking group (BxPC3-luc tumor; pretreatment with 1 (40 mg/kg, intraperitoneal, 1 h before))",SMILES,Cellular uptake in BxPC3-luc cells [1],Uptake in BxPC3-luc cells after pretreatment with excess inhibitor (BxPC3-luc cells)
significantly reduced,0.96 ± 0.20 % ID/g,"COCCOc1ccc2c(c1)ncn2-c1ccc2c([77Br])ccc(N3CCC(N)CC3)c2n1 [[^77Br]2, [^77Br]1-{5-Bromo-2-[5-(2-methoxyethoxy)-1H-benzo[d]imidazol-1-yl]quinoline-8-yl}piperidin-4-amine]",higher than that in MCF7 cells; also recorded: higher uptake of [^77Br]2 than that of [^77Br]3,decreased
–,–,"COCCOc1ccc2c(c1)ncn2-c1ccc2cccc(N3CCC(NC(=O)c4cccc([77Br])c4)CC3)c2n1 [[^77Br]3, [^77Br]-N-3-bromobenzoyl-1-{2-[5-(2-methoxyethoxy)-1H-benzo[d]imidazol-1-yl]quinolin-8-yl}-piperidin-4-amine]",more highly accumulated in BxPC3-luc cells than in MCF7 cells,inhibited
